Assay results reported in the supplement of paper PMC5908809.

Key:
[1] = system: normal NK cells expanded with K562-aAPC; assay: percent inhibition of viability; higher = more inhibition; settings: 72 h, IL-2 2.5 ng/mL
Procedure: (§1)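 Drug sensitivity and resistance testing on K562-aAPC-expanded normal NK cells: 5 concentrations (10-fold steps over a 10,000-fold range), 72 h at 37 °C, viability by CellTiter-Glo normalised to DMSO and benzethonium chloride controls; DSS from the fitted curve.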

KAI3 (IL-2 2.5 ng/mL) [2] = assay: drug sensitivity score (DSS) (DSS units); higher = more sensitive; extreme values may be limits of the assay; settings: 72 h
[3] = system: normal primary NK cells, pool 3 (3 donors) (IL-2 2.5 ng/mL); assay: as above; settings: 72 h
KHYG-1 (IL-2 2.5 ng/mL) [4] = assay: as above; settings: 72 h
[5] = system: normal primary NK cells, pool 2 (3 donors) (IL-2 2.5 ng/mL); assay: as above; settings: 72 h
NKL (IL-2 2.5 ng/mL) [6] = assay: as above; settings: 72 h
NK-92 (IL-2 2.5 ng/mL) [7] = assay: as above; settings: 72 h
IMC-1 (IL-2 20 ng/mL) [8] = assay: as above; settings: 72 h
[9] = system: normal primary NK cells, pool 1 (3 donors) (IL-2 2.5 ng/mL); assay: as above; settings: 72 h
YT (IL-2 2.5 ng/mL) [10] = assay: as above; settings: 72 h
SNK-6 (IL-2 2.5 ng/mL) [11] = assay: as above; settings: 72 h
DERL-7 (IL-2 2.5 ng/mL) [12] = assay: as above; settings: 72 h
NK-YS (IL-2 2.5 ng/mL) [13] = assay: as above; settings: 72 h
[14] = system: normal primary NK cells, pool 1 (3 donors), resting (IL-2 0 ng/mL); assay: as above; settings: 72 h
KAI3 (IL-2 2.5 ng/mL) [15] = assay: percent inhibition of viability; higher = more inhibition; settings: 72 h
[16] = system: normal primary NK cells, pool 3 (3 donors) (IL-2 2.5 ng/mL); assay: as above; settings: 72 h
KHYG-1 (IL-2 2.5 ng/mL) [17] = assay: as above; settings: 72 h
[18] = system: normal primary NK cells, pool 2 (3 donors) (IL-2 2.5 ng/mL); assay: as above; settings: 72 h
NKL (IL-2 2.5 ng/mL) [19] = assay: as above; settings: 72 h
NK-92 (IL-2 2.5 ng/mL) [20] = assay: as above; settings: 72 h
IMC-1 (IL-2 20 ng/mL) [21] = assay: as above; settings: 72 h
[22] = system: normal primary NK cells, pool 1 (3 donors) (IL-2 2.5 ng/mL); assay: as above; settings: 72 h
YT (IL-2 2.5 ng/mL) [23] = assay: as above; settings: 72 h
SNK-6 (IL-2 2.5 ng/mL) [24] = assay: as above; settings: 72 h
DERL-7 (IL-2 2.5 ng/mL) [25] = assay: as above; settings: 72 h
NK-YS (IL-2 2.5 ng/mL) [26] = assay: as above; settings: 72 h
[27] = system: normal primary NK cells, pool 1 (3 donors), resting (IL-2 0 ng/mL); assay: as above; settings: 72 h
[28] = system: normal NK cells expanded with K562-aAPC; assay: drug sensitivity score (DSS) (DSS units); higher = more sensitive; extreme values may be limits of the assay; settings: 72 h; IL-2 2.5 ng/mL
Procedure: as §1

CC1(COc2ccc3c(c2)ncn3-c2ccc3cccc(N4CCC(N)CC4)c3n2)COC1 [Crenolanib] (max concentration tested 10000 nM)
percent inhibition of viability [%]
Settings | 1 nM | 10 nM | 100 nM | 1000 nM | 10000 nM
DERL-7 (IL-2 2.5 ng/mL) [25] | 9.4 | 0.68 | 2.82 | 50.6 | 101
IMC-1 (IL-2 20 ng/mL) [21] | -5.33 | 1.06 | 0.71 | 5.26 | 101
KAI3 (IL-2 2.5 ng/mL) [15] | -3.85 | -6.78 | -18.2 | 10.7 | 102
KHYG-1 (IL-2 2.5 ng/mL) [17] | 2.86 | -0.81 | 5.22 | 18.1 | 99.8
NK-92 (IL-2 2.5 ng/mL) [20] | -3.46 | -7.66 | 2.06 | 50.1 | 102
NK-YS (IL-2 2.5 ng/mL) [26] | -3.61 | -4.32 | -1.2 | 16.6 | 101
NKL (IL-2 2.5 ng/mL) [19] | 12.4 | 0.04 | 22.6 | 53 | 103
SNK-6 (IL-2 2.5 ng/mL) [24] | 21.7 | 16.3 | 25 | 54.8 | 101
YT (IL-2 2.5 ng/mL) [23] | 4.17 | 1.51 | 11.1 | 24.2 | 99.7
[1] | -3.71 | -1.22 | -0.36 | 37.5 | 101
[16] | -13.7 | -6.99 | 10.3 | 22.4 | 100
[18] | -14.1 | -6.62 | 2.71 | 32 | 99.4
[22] | 2.4 | -5.93 | -3.03 | 22.4 | 100
[27] | -7.18 | -27.8 | -5.86 | -10.3 | 98.2

Settings | drug sensitivity score
DERL-7 (IL-2 2.5 ng/mL) [12] | 11.6
IMC-1 (IL-2 20 ng/mL) [8] | 6.39
KAI3 (IL-2 2.5 ng/mL) [2] | 7.36
KHYG-1 (IL-2 2.5 ng/mL) [4] | 8.48
NK-92 (IL-2 2.5 ng/mL) [7] | 11.7
NK-YS (IL-2 2.5 ng/mL) [13] | 8.29
NKL (IL-2 2.5 ng/mL) [6] | 13.3
SNK-6 (IL-2 2.5 ng/mL) [11] | 15.2
YT (IL-2 2.5 ng/mL) [10] | 9.15
[3] | 9.06
[5] | 10.1
[9] | 9.05
[14] | 4.78
[28] | 10.6
